The test system of the data set is esterase. Briefly: Half-life time was determined for esterase-catalyzed hydrolysis of the phenol ester bond in porcine liver esterase. Type of data set: ADME, Sus scrofa. The following applies: pig.

As usually defined, the half-life is how long it takes for the measured level to halve. `CC(C)C[C@H]1NC(=O)Oc2ccccc2/C=C\C(=O)NC(=O)[C@H](Cc2ccc(O)cc2)NC(=O)[C@@H](C)NC(=O)CNC(=O)[C@H](Cc2ccccc2)NC1=O`: the half-life came to 761 min.
